Values joined by “and” are separate entries in the source; they are usually repeats but may differ in a detail not shown here. Identical values can stand only once. Marks after values point to notes of the source that are not given here.
Assays:
[1] = system: coagulation (PT, INR, aPTT); experiment: Basic coagulation panel (PT, INR, aPTT) and coagulation safety (Example 5)
Excerpt: (§2) The INR is the ratio of a subject's prothombin time (PTtest) to the prothombin time of a normal (control) sample (PTnormal), raised to the power of the International Sensitivity Index (ISI) value for the analytical system:
“Prothrombin time” or “PT” refers to the time it takes the blood plasma of a subject to clot after the addition of a thromboplastin reagent. “Thromboplastin reagent” refers to a standardized commercial product which is used in blood coagulation assays to measure blood clotting time.
(§3) As used herein, the terms “activated partial thromboplastin time” or “aPTT” or “partial thromboplastin time” or “PTT,” refer to the time it takes the blood plasma of a subject to clot after the addition of a phospholipid (i.e., partial thromboplastin) and calcium chloride. Non-limiting examples of phospholipids for use in determining aPTT include silica and kaolin.
INR grades are used to rank the severity thresholds for the coagulation factors relative to the upper normal of limit values (ULN). The higher the INR grade the higher the severity. […] As used herein, “Grade 1” refers to an INR value of 1.1 to 1.65 in a subject. As used herein, “Grade 2” refers to an INR value of 1.65 to 2.2 in a subject. As used herein, “Grade 3” refers to an INR value greater than 2.2 in a subject.
Thus both the basic coagulation panel assessments including PT, INR, aPTT, and platelet counts were performed at screening, on Day −1, and extensively throughout the treatment period to assess the potential effect of ATQ on coagulation.
This section covers the PD effect of ATQ on the coagulation parameters PT, INR, and aPPT and the relative time course of drug induced changes in these parameters.

factor II (prothrombin) = experiment: Extended coagulation biomarker panel: factor II; format: in vivo, human; conditions: Part 2, 0.67 g TID, Day 4
Excerpt: (§1) In Part 1 the extended panel was collected at screening and at check-in (Day −1) and Day 2 of each period unless the study results warranted a different sampling schedule. In Part 2, the same of the exploratory coagulation biomarkers were collected at screening, check-in, Day 4, and Day 8 in Cohorts 1 and 2, or at check-in, Day 7, and Day 14 in Cohorts 3 and 4 with the following exception: in Cohorts 3 and 4, platelet function was collected at check-in only or when medically indicated.

factor X = experiment: Extended coagulation biomarker panel: factor X; format: in vivo, human
Excerpt: as §1

[2] = system: coagulation tests (PT, INR, PTT); experiment: Coagulation tests (PT, INR, PTT) after single ATQ dose (Example 4); conditions: for Highest postdose PT value above ULN: one subject
Excerpt: as §2
“Prothrombin time” or “PT” refers to the time it takes the blood plasma of a subject to clot after the addition of a thromboplastin reagent. “Thromboplastin reagent” refers to a standardized commercial product which is used in blood coagulation assays to measure blood clotting time. Non-limiting examples of thromboplastin reagents include RecombiPlasTin (Beckman Coulter, Brea, Calif.), INNOVN® and THROMBOREL® (Dade Behring, Liederbach, Germany).
as §3

protein S = experiment: Extended coagulation biomarker panel: protein S; format: in vivo, human; conditions: Part 2, 0.67 g TID, Day 4
Excerpt: as §1

[3] = Single-dose ascending-dose pharmacokinetics of ATQ in healthy volunteers (Example 4); conditions: for CL/F: fed conditions, mean
Protocol: Healthy adult male subjects were enrolled into 1 of 6 cohorts of 10 subjects, and randomly assigned to receive either alpha-tocopherolquinone (ATQ) (8 subjects) in olive oil or placebo (2 subjects). Safety, tolerability and PK characteristics of ATQ were assessed under fasted conditions (low dose of 0.25 g and 0.5 g) and fed conditions (range of 0.5 g to 6.0 g), during co-administration with 400 IU vitamin E (2.0 g), and following a 2.2 g total dose administered in 3 equally-divided doses of 0.735 g, and 7 hours apart. There was a 2-week interval between dosing of cohorts while a medical review of the data collected on the preceding dose was conducted. Blood samples for the measurement of ATQ concentration were collected pre-dose and up to 168 hours following dose administration. All plasma ATQ concentrations were determined using a GLP validated bioanalytical method. Blood samples for the measurement of vitamin E concentrations were collected prior to and at 24 hours following dose administration (Cohorts 1, 2, and 3) and serially for up to 24 hours in Cohorts 4 through 6 except for Cohort 4, Period 2 (vitamin E co-administration) where samples were collected for up to 96 hours. Urine was collected for the measurement of ATQ and its metabolites in pooled intervals up to 72 hours post-dose for all cohorts.

[4] = Cohort 5 (6-g ATQ), subject with highest PT
[5] = Cohort 6 (2.2-g as 0.735-g TID)
[6] = of the 48 subjects who received ATQ

CC1=C(C)C(=O)C(CC[C@](C)(O)CCC[C@H](C)CCC[C@H](C)CCCC(C)C)=C(C)C1=O [ATQ, alpha-tocopherolquinone]
INR values reached by individual subjects ([1]; 0.67 g TID group, 3 of 8 subjects): 2.3 and 3.0 (2×) | Subjects with that grade of INR increase ([1]; 0.75 g BID, Grade 2): 2 of 6 | Subjects with that grade of INR increase ([1]; 2-g/day (0.67 g TID), Grade 3, active-treated): 3 of 8 | Effect on coagulation (INR, PT, aPTT) ([1]; 3-g over 1 day, 0.33 g TID and 0.67 g TID or 0.75 g BID): clear effect on coagulation | Effect on coagulation during prolonged dosing ([1]; 14 days at 0.5 g and 0.75 g BID): appeared to slowly abate while still on drug beyond 8 days | Subjects with clinical coagulation laboratory values greater than 1.5 times the upper limit of normal (value greater than 1.65) ([1]; Part 1): 5 subjects | Subjects with clinically relevant changes in clinical laboratory values related to treatment-emergent adverse events ([1]; Part 1): Twelve | Active-treated subjects with clinically relevant changes in clinical laboratory values related to treatment-emergent adverse events ([1]; b179, part not stated): Twenty-five | Subjects with study-drug related clinical coagulation laboratory values greater than 1.5 times the upper limit of normal (value greater than 1.65) ([1]; b179, part not stated): 11 subjects | Onset of the effect on coagulation ([1]; following the first (high dose) of ATQ, Part 1): 18 h | Time course of the effect on coagulation ([1]; initial increase through Day 4, second peak by Day 7 to 8): biphasic | Onset of the effect on coagulation ([1]; multiple dose administration): ≤ 48 h | Time at which most subjects approach baseline coagulation values ([1]; post last dose): 48 h | Subjects with that grade of INR increase ([1]; single daily doses of 3-g ATQ, Grade 2): 4 of 12 | Decrease from baseline activity of factor II (factor II (prothrombin)): 51% | Decrease from baseline activity of factor X (factor X; Part 2, 0.67 g TID, Day 4): 62% | Decrease from baseline activity of factor X (factor X; Part 2, Day 14): 68% | INR change ([2]; 2 g administered as a single entity (2 g QD)): NO INR change | Subjects with 24-hour postdose PT value above ULN ([2]; Cohort 3 (1-g ATQ)): 2 of 8 | 24-hour postdose PT value above ULN ([2]; Cohort 3 (1-g ATQ), 2 of 8 subjects): 5.2% | Subjects with postdose PT values above ULN ([2]; Cohort 5 (6-g ATQ)): 5 of 8 | Highest postdose PT value above ULN ([2]; Cohort 5 (6-g ATQ)): 39.1% | Increase in INR above ULN [2, 4]: 23.1% | Increase in PTT above ULN [2, 4]: 5.6% | Subjects with postdose PT values above ULN [2, 5]: 4 of 8 | Highest postdose PT value above ULN [2, 5]: 20.9% | Increase in INR above ULN ([2]; Cohort 6 (2.2-g as 0.735-g TID), subject with highest PT): 7.7% | Subjects with a 24-hour postdose INR value above ULN [2, 6]: 2 subjects | Subjects with a 24-hour postdose PTT value above ULN [2, 6]: 1 subject | Subjects with postdose PT values above the upper limit of normal (ULN) [2, 6]: 11 subjects | Time for INR and PTT values to return to normal range ([2]; postdose, all subjects): ≤ 48 h | Effect on the coagulation tests, especially PT and INR ([2]; single doses, 48 subjects who received ATQ): slight but not clinically significant effect | Reversibility of changes in hemostasis ([2]; upon cessation of the treatment): fully reversible | Decrease from baseline activity of protein S (protein S): 56% | Increase in bioavailability with a high-fat meal ([3]; 0.5 g with high-fat meal versus fasted): over 60 fold | ATQ concentration versus time profile with and without vitamin E ([3]; 2 g QD dose, with and without 400-IU of vitamin E): essentially unchanged | CL/F ([3]; 2.2 g (0.735 g TID), N = 8): 22.731 L/h | Effect of dividing the dose on ATQ bioavailability ([3]; 2.2 g as 3 doses of 0.735 g 7 hours apart rather than a single unit): significantly increased ATQ bioavailability | Baseline-adjusted ATQ concentration at 24 hours as share of Cmax ([3]; 24 hours post-dose): less than 1% | Tmax ([3]; male, human, plasma, oral): 6 h | Time for ATQ concentrations to return to endogenous baseline levels ([3]; post-dose): ≤ 24 h | CL/F ([3]; single 0.5 g dose, N = 6): 25.910[b] L/h | CL/F ([3]; single 1.0 g dose, N = 7): 15.950[c] L/h | CL/F ([3]; single 2.0 g dose, N = 7): 33.404[c] L/h | CL/F ([3]; single 6.0 g dose, N = 6): 62.824[b] L/h | Dose proportionality of absorption ([3]; single doses 0.5 g to 6.0 g after high-fat breakfast): dose proportional between 0.5 g and 1 g but was blunted at higher doses | Absorption under fasted conditions ([3]; single oral doses 0.25 g and 0.5 g, fasted): poorly absorbed | Unchanged ATQ in urine samples ([3]; urine collected up to 72 hours post-dose): not detected

From US20120101169A1, “METHODS OF PROVIDING ANTICOAGULATION EFFECTS IN SUBJECTS” (Penwest Pharmaceuticals Co., priority 2010, published 2012)
